Assay results published in the NIST ThermoML archive (doi:10.1007/s10765-006-0033-6).

Assay: compressibility factor (dimensionless); xn = mol fraction of the nth substance listed
Conditions: Gas, Other PVT measurement

[N-]=[N+]=O [nitrous oxide] + FCF
Conditions	compressibility factor
303.23 K, 131 kPa, x1 = 0.2958	0.9882
303.23 K, 133.7 kPa, x1 = 0.3826	0.9887
303.23 K, 194.9 kPa, x1 = 0.2958	0.9827
303.23 K, 199.1 kPa, x1 = 0.3826	0.9838
303.23 K, 213.1 kPa, x1 = 0.7326	0.9893
303.23 K, 235.1 kPa, x1 = 0.6589	0.9847
303.23 K, 289.2 kPa, x1 = 0.2958	0.9746
303.23 K, 295.5 kPa, x1 = 0.3826	0.9761
303.23 K, 316.4 kPa, x1 = 0.7326	0.9819
303.23 K, 349.2 kPa, x1 = 0.6589	0.9776
303.23 K, 356.8 kPa, x1 = 0.448	0.9708
303.23 K, 427.1 kPa, x1 = 0.2958	0.9622
303.23 K, 436.8 kPa, x1 = 0.3826	0.9645
303.23 K, 468.8 kPa, x1 = 0.7326	0.9723
303.23 K, 516.7 kPa, x1 = 0.6589	0.9669
303.23 K, 526.5 kPa, x1 = 0.448	0.9574
303.23 K, 626.7 kPa, x1 = 0.2958	0.9437
303.23 K, 641.7 kPa, x1 = 0.3826	0.947
303.23 K, 691.2 kPa, x1 = 0.7326	0.9582
303.23 K, 760.2 kPa, x1 = 0.6589	0.9509
303.23 K, 771.2 kPa, x1 = 0.448	0.9375
303.23 K, 910.7 kPa, x1 = 0.2958	0.9166
303.23 K, 933.9 kPa, x1 = 0.3826	0.9213
303.23 K, 1012.1 kPa, x1 = 0.7326	0.9378
303.23 K, 1108.8 kPa, x1 = 0.6589	0.927
303.23 K, 1117.6 kPa, x1 = 0.448	0.9081
303.23 K, 1303.4 kPa, x1 = 0.2958	0.8768
303.23 K, 1340.2 kPa, x1 = 0.3826	0.8837
303.23 K, 1465.6 kPa, x1 = 0.7326	0.9077
303.23 K, 1593.4 kPa, x1 = 0.448	0.8653
303.23 K, 1596.2 kPa, x1 = 0.6589	0.892
303.23 K, 1822 kPa, x1 = 0.2958	0.8193
303.23 K, 1881.5 kPa, x1 = 0.3826	0.8292
303.23 K, 2086.1 kPa, x1 = 0.7326	0.8636
303.23 K, 2214.2 kPa, x1 = 0.448	0.8037
303.23 K, 2252 kPa, x1 = 0.6589	0.8412
303.23 K, 2454.7 kPa, x1 = 0.2958	0.7378
303.23 K, 2551.4 kPa, x1 = 0.3826	0.7516
303.23 K, 2892.7 kPa, x1 = 0.7326	0.8004
303.23 K, 2954.5 kPa, x1 = 0.448	0.7169
303.23 K, 3079.5 kPa, x1 = 0.6589	0.7688
303.23 K, 3848.9 kPa, x1 = 0.7326	0.7119
303.23 K, 4005.3 kPa, x1 = 0.6589	0.6684
323.44 K, 159 kPa, x1 = 0.5714	0.9902
323.44 K, 237 kPa, x1 = 0.5714	0.9864
323.44 K, 254.6 kPa, x1 = 0.745	0.9868
323.44 K, 352.4 kPa, x1 = 0.5714	0.9806
323.44 K, 378.8 kPa, x1 = 0.745	0.9812
323.44 K, 522.4 kPa, x1 = 0.5714	0.9714
323.44 K, 561.8 kPa, x1 = 0.745	0.9727
323.44 K, 770.4 kPa, x1 = 0.5714	0.9577
323.44 K, 829.3 kPa, x1 = 0.745	0.9598
323.44 K, 1128 kPa, x1 = 0.5714	0.9372
323.44 K, 1215.8 kPa, x1 = 0.745	0.9406
323.44 K, 1633.3 kPa, x1 = 0.5714	0.9071
323.44 K, 1764.2 kPa, x1 = 0.745	0.9123
323.44 K, 2325.6 kPa, x1 = 0.5714	0.8633
323.44 K, 2519.5 kPa, x1 = 0.745	0.8708
323.44 K, 3228.5 kPa, x1 = 0.5714	0.8011
323.44 K, 3513.7 kPa, x1 = 0.745	0.8117
323.44 K, 4726.6 kPa, x1 = 0.745	0.7299
323.45 K, 119.4 kPa, x1 = 0.4108	0.9909
323.45 K, 128.6 kPa, x1 = 0.3236	0.9894
323.45 K, 141.9 kPa, x1 = 0.2465	0.9883
323.45 K, 178 kPa, x1 = 0.4108	0.9879
323.45 K, 191.7 kPa, x1 = 0.3236	0.986
323.45 K, 211.5 kPa, x1 = 0.2465	0.984
323.45 K, 265 kPa, x1 = 0.4108	0.9831
323.45 K, 285.1 kPa, x1 = 0.3236	0.9802
323.45 K, 314.1 kPa, x1 = 0.2465	0.9771
323.45 K, 393.4 kPa, x1 = 0.4108	0.9754
323.45 K, 422.8 kPa, x1 = 0.3236	0.9714
323.45 K, 464.8 kPa, x1 = 0.2465	0.9664
323.45 K, 581.5 kPa, x1 = 0.4108	0.9636
323.45 K, 623.6 kPa, x1 = 0.3236	0.9578
323.45 K, 683.5 kPa, x1 = 0.2465	0.9499
323.45 K, 854.1 kPa, x1 = 0.4108	0.946
323.45 K, 912.9 kPa, x1 = 0.3236	0.9372
323.45 K, 996.3 kPa, x1 = 0.2465	0.9254
323.45 K, 1242.3 kPa, x1 = 0.4108	0.9198
323.45 K, 1321.6 kPa, x1 = 0.3236	0.9069
323.45 K, 1433.4 kPa, x1 = 0.2465	0.8899
323.45 K, 1781.4 kPa, x1 = 0.4108	0.8816
323.45 K, 1881.4 kPa, x1 = 0.3236	0.8629
323.45 K, 2021.2 kPa, x1 = 0.2465	0.8388
323.45 K, 2499.7 kPa, x1 = 0.4108	0.8269
323.45 K, 2610.3 kPa, x1 = 0.3236	0.8003
343.77 K, 139.1 kPa, x1 = 0.2266	0.9898
343.77 K, 195.1 kPa, x1 = 0.4666	0.989
343.77 K, 207.5 kPa, x1 = 0.2266	0.9867
343.77 K, 226.8 kPa, x1 = 0.7567	0.9899
343.77 K, 290.7 kPa, x1 = 0.4666	0.985
343.77 K, 308.8 kPa, x1 = 0.2266	0.9814
343.77 K, 338.1 kPa, x1 = 0.7567	0.9863
343.77 K, 432.2 kPa, x1 = 0.4666	0.9788
343.77 K, 458 kPa, x1 = 0.2266	0.973
343.77 K, 502.9 kPa, x1 = 0.7567	0.9804
343.77 K, 640.2 kPa, x1 = 0.4666	0.9692
343.77 K, 676.2 kPa, x1 = 0.2266	0.9601
343.77 K, 745.4 kPa, x1 = 0.7567	0.9714
343.77 K, 943.3 kPa, x1 = 0.4666	0.9546
343.77 K, 991.2 kPa, x1 = 0.2266	0.9407
343.77 K, 1099.4 kPa, x1 = 0.7567	0.9577
343.77 K, 1379.1 kPa, x1 = 0.4666	0.9328
343.77 K, 1438.1 kPa, x1 = 0.2266	0.9123
343.77 K, 1609.7 kPa, x1 = 0.7567	0.9372
343.77 K, 1992.6 kPa, x1 = 0.4666	0.9008
343.77 K, 2053.8 kPa, x1 = 0.2266	0.8708
343.77 K, 2331.4 kPa, x1 = 0.7567	0.9073
343.77 K, 2828.1 kPa, x1 = 0.4666	0.8546
343.77 K, 2865.7 kPa, x1 = 0.2266	0.8122
343.77 K, 3321.8 kPa, x1 = 0.7567	0.8641
343.77 K, 3911.6 kPa, x1 = 0.4666	0.7901
343.77 K, 4620.1 kPa, x1 = 0.7567	0.8033
343.78 K, 138.3 kPa, x1 = 0.3594	0.9911
343.78 K, 187.9 kPa, x1 = 0.5908	0.9906
343.78 K, 206.4 kPa, x1 = 0.3594	0.9884
343.78 K, 280.1 kPa, x1 = 0.5908	0.9872
343.78 K, 307.3 kPa, x1 = 0.3594	0.9836
343.78 K, 416.8 kPa, x1 = 0.5908	0.9817
343.78 K, 456.2 kPa, x1 = 0.3594	0.9762
343.78 K, 618.2 kPa, x1 = 0.5908	0.9733
343.78 K, 674.7 kPa, x1 = 0.3594	0.9649
343.78 K, 912.7 kPa, x1 = 0.5908	0.9605
343.78 K, 991.4 kPa, x1 = 0.3594	0.9477
343.78 K, 1338.5 kPa, x1 = 0.5908	0.9415
343.78 K, 1443.8 kPa, x1 = 0.3594	0.9225
343.78 K, 1942.8 kPa, x1 = 0.5908	0.9134
343.78 K, 2073.7 kPa, x1 = 0.3594	0.8857
343.78 K, 2776.8 kPa, x1 = 0.5908	0.8726
343.78 K, 2917.9 kPa, x1 = 0.3594	0.833
343.78 K, 3879.6 kPa, x1 = 0.5908	0.8149
364.35 K, 199.4 kPa, x1 = 0.5606	0.9913
364.35 K, 297.5 kPa, x1 = 0.5606	0.9887
364.35 K, 443 kPa, x1 = 0.5606	0.9839
364.35 K, 657.8 kPa, x1 = 0.5606	0.9766
364.35 K, 972.8 kPa, x1 = 0.5606	0.9653
364.35 K, 1430 kPa, x1 = 0.5606	0.9485
364.35 K, 2083.5 kPa, x1 = 0.5606	0.9237
364.35 K, 2996.2 kPa, x1 = 0.5606	0.8879
364.35 K, 4225.6 kPa, x1 = 0.5606	0.837
364.36 K, 114.2 kPa, x1 = 0.2563	0.9933
364.36 K, 134.6 kPa, x1 = 0.33	0.9913
364.36 K, 170.5 kPa, x1 = 0.2563	0.9913
364.36 K, 197 kPa, x1 = 0.4559	0.9909
364.36 K, 200.9 kPa, x1 = 0.33	0.9892
364.36 K, 250.5 kPa, x1 = 0.7632	0.9908
364.36 K, 254.2 kPa, x1 = 0.2563	0.9878
364.36 K, 294 kPa, x1 = 0.4559	0.9885
364.36 K, 299.7 kPa, x1 = 0.33	0.9864
364.36 K, 373.5 kPa, x1 = 0.7632	0.9875
364.36 K, 378.2 kPa, x1 = 0.2563	0.9825
364.36 K, 437.3 kPa, x1 = 0.4559	0.9828
364.36 K, 445.6 kPa, x1 = 0.33	0.9802
364.36 K, 556.1 kPa, x1 = 0.7632	0.9827
364.36 K, 561.2 kPa, x1 = 0.2563	0.9743
364.36 K, 649 kPa, x1 = 0.4559	0.9748
364.36 K, 660.6 kPa, x1 = 0.33	0.9712
364.36 K, 824.6 kPa, x1 = 0.7632	0.974
364.36 K, 828.8 kPa, x1 = 0.2563	0.9619
364.36 K, 959 kPa, x1 = 0.4559	0.9628
364.36 K, 974.3 kPa, x1 = 0.33	0.9575
364.36 K, 1216 kPa, x1 = 0.2563	0.9432
364.36 K, 1218.7 kPa, x1 = 0.7632	0.9621
364.36 K, 1408 kPa, x1 = 0.4559	0.9448
364.36 K, 1425.9 kPa, x1 = 0.33	0.9367
364.36 K, 1766.2 kPa, x1 = 0.2563	0.9157
364.36 K, 1788.6 kPa, x1 = 0.7632	0.9438
364.36 K, 2047.8 kPa, x1 = 0.4559	0.9185
364.36 K, 2064.5 kPa, x1 = 0.33	0.9064
364.36 K, 2528.1 kPa, x1 = 0.2563	0.8762
364.36 K, 2598.5 kPa, x1 = 0.7632	0.9166
364.36 K, 2935.9 kPa, x1 = 0.4559	0.8802
364.36 K, 2942.6 kPa, x1 = 0.33	0.8636
364.36 K, 3725.1 kPa, x1 = 0.7632	0.8782
364.36 K, 4122.8 kPa, x1 = 0.4559	0.8262
364.36 K, 5229 kPa, x1 = 0.7632	0.824
